The values below come from US20250199004A1, “METHODS OF EVALUATING TREATMENT OUTCOME IN HIGH GRADE SEROUS OVARIAN CANCER” (THE REGENTS OF THE UNIVERSITY OF COLORADO, A BODY CORPORATE, priority 2018, published 2025).

Common to all, as to assay type: cell-based, human
In series [1] the test system is aldehyde dehydrogenase (ALDH). The series can be described thus: Aldefluor assay with flow cytometry. The conditions noted are these: OVCAR4 cells, adherent and suspended, 7 days; negative control. From the text: The panels of FIG. 9A and FIG. 9B are as follows. Panel A: CBX2-associated genes were cross-referenced with a gene set for stemness. Percentage indicates overlap of stemness gene set with CBX2-associated genes. Panel B: OVCAR4 cells grown in adherent and suspended settings for 7 days. Aldefluor assay and flow cytometry were utilized to determine the percentage of cells that were positive for aldehyde dehydrogenase (ALDH), a marker of stemness. […] Panel C: As above, OVCAR4 cells grown in adherent and suspended settings for 7 days. Bar graph compares the percentage of cells ALDH positive control (+DEAB) to cells without DEAB (experimental) in adherent and suspended settings. Statistical test=two-sided t-test. F Test p=0.1136. Panel D: OVCAR4 cells with shControl, shCBX2 #1 and #2 cultured in suspension over 7 days. Aldefluor assay and flow cytometry again utilized to determine the percentage of cells ALDH positive. Statistical test=two-sided t-test. F-test p=0.83 Panel E: Utilizing the TCGA (HGSOC, Nature, 2011, n=489) dataset, a scatter plot CBX2 expression was correlated to ALDH3A1 expression. Spearman correlation r=0.2123 and p-value<0.0001. Panel F: RT-qPCR of ALDH3A1 in OVCAR4 cells cultured in adherent and suspension conditions with CBX2 knockdown (shCBX2 #1). Statistical test =ANOVA. […]
Background: Flow cytometry measures light scatter and fluorescence of single cells or particles in a stream.

In series [2] the test system is TMEFF1 expression in OVCAR4 cells. The series can be described thus: TMEFF1 (CBX2 target gene) expression by qPCR. The conditions noted are these: qPCR after treatment of OVCAR4 cells. As for the experimental part:
Ten candidate inhibitors were evaluated based on their ability to inhibit HGSOC cell viability. Dose response assays of all 10 inhibitors were conducted in OVCAR4, PEO1, and COV504 HGSOC cell lines to determine half inhibitory concentration (IC50) (FIG. 12 Panel A). We explored ability of these compounds to downregulate a CBX2 target gene, transmembrane protein with EGF-like and two follistatine-like domains 1 (TMEFF1) (FIG. 12 Panel B).
RNA was isolated using RNAeasy Plus Mini Kit (Qiagen, Hilden Germany) according to the manufacturer's protocol. NanoDrop spectrophotometry was used to measure concentration of extracted RNA. Luna Universal One-step RT qPCR kit (New England BioLabs, Ipswich, MA) was used on BioRad CFX96 (Bio-Rad, Hercules, CA). HPRT or GAPDH were used as internal control as stated in figure legend.
(In general: Real-time PCR tracks product formation cycle by cycle.)

For a further series, the system named is CBX2. As to the kind of experiment: CBX2 knockdown confirmed via qPCR and immunoblots. As to conditions: shRNA transduced into OVCAR4, PEO1 and OVCAR8 cells; vs shControl. The text has this: To further elucidate the role of CBX2 in HGSOC, we evaluated the impact of CBX2 modulation in PEO1, OVCAR4, and OVCAR8 HGSOC cell lines. One of the two independent small hairpin RNAs (shRNA) specific for CBX2 or a control (shControl) were transduced into OVCAR4, PEO1, and OVCAR8 cells. CBX2 knockdown was confirmed via quantitative PCR (qPCR) and immunoblots, with approximately 60% knockdown in the presence of shCBX2 #1 and 30% knockdown in the presence of shCBX2 #2 (FIG. 2A Panels C, D; and FIG. 3A Panels B-D). […] OVCAR4 and PEO1 CBX2 knockdown cells were plated in adherent (2D) conditions and for 96 h gLuc activity was measured every 24 h. […] OVCAR4 and PEO1 CBX2 knockdown cells were plated in forced suspension conditions and gLuc activity was monitored every 24 h for 96 h and cell viability was determined for cells grown in forced suspension. […] Spheroid diameter was measured for at least 50 spheroids in each condition and used as a surrogate for cell number. […]
Cell lysis was performed using radioimmunoprecipitation assay (RIPA) buffer (150 mM sodium chloride, Triton X-100, 0.5% sodium deoxycholate, 0.1% SDS [sodium dodecyl sulfate], 50 mM Tris, pH 8.0) supplemented with complete EDTA-free protease inhibitor cocktail (Roche), as well as NaF and NaV. Protein was quantified using bicinchoninic acid (BCA) protein assay (Thermo Fisher Scientific, Waltham, MA) and spectrophotometry. […]

Consider `CCN(CC)c1ccc(C=O)cc1` [DEAB, Diethylaminobenzaldehyde], for which the ALDH activity result in series [1] is reported as “prevented the increase”. As to `CC(=O)Nc1ccc(OC[C@](C)(O)C(=O)Nc2ccc([N+](=O)[O-])c(C(F)(F)F)c2)cc1` [GTX-007], in series [2], the TMEFF1 expression entry was “significantly inhibited”. For the compound `CCc1c(C(=O)C(N)=O)c2c(OCC(=O)O)cccc2n1Cc1ccccc1` [LY315920], the TMEFF1 expression entry in series [2] is reported as “significantly inhibited”.

For the compound `Cc1nc2ccc(CN(C)c3ccc(C(=O)N[C@@H](CCC(=O)O)C(=O)O)s3)cc2c(=O)[nH]1` [raltitrexed], in series [2], the TMEFF1 expression entry is reported as “significantly inhibited”. Consider “shCBX2 #1: CBX2-specific short hairpin RNA, GCCAAGGAAGCTCACTGCCAT (SEQ ID NO:19) (expressed or natural sequence; listed as Homo sapiens)”, for which, in the series on CBX2, the CBX2 knockdown result is given as “approximately 60%”. “shCBX2 #2: CBX2-specific short hairpin RNA, ACGGAAAGGAACAGGAAGCAT (SEQ ID NO:20) (expressed or natural sequence; listed as Homo sapiens)”: the CBX2 knockdown in the series on CBX2 was around 30%.
